Data: PubChem BioAssay (NCI)
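Values below derive from 48-hour exposures of cells grown in 96-well plates, with endpoints linearly interpolated between the two concentrations bracketing the appropriate inhibition level. GI50 marks 50% less growth. TGI is the concentration that stops growth completely.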

What was measured:
Assay in all cases: growth of human tumour cells (NCI), 48 h
OVCAR-3 ovarian = system: OVCAR-3 ovarian
SK-MEL-2 melanoma = system: SK-MEL-2 melanoma
M14 melanoma = system: M14 melanoma
UO-31 renal = system: UO-31 renal
SF-539 CNS = system: SF-539 CNS
NCI-H226 lung = system: NCI-H226 lung
HCC-2998 colon = system: HCC-2998 colon
RXF 393 renal = system: RXF 393 renal
MDA-MB-231 breast = system: MDA-MB-231 breast
NCI/ADR-RES ovarian = system: NCI/ADR-RES ovarian

Structure (SMILES) | TGI (OVCAR-3 ovarian) | TGI (SK-MEL-2 melanoma) | TGI (M14 melanoma) | TGI (UO-31 renal) | TGI (SF-539 CNS) | TGI (NCI-H226 lung) | TGI (HCC-2998 colon) | TGI (RXF 393 renal) | GI50 (MDA-MB-231 breast) | TGI (MDA-MB-231 breast) | GI50 (OVCAR-3 ovarian) | GI50 (SK-MEL-2 melanoma) | GI50 (M14 melanoma) | GI50 (UO-31 renal) | GI50 (SF-539 CNS) | GI50 (NCI-H226 lung) | GI50 (NCI/ADR-RES ovarian) | TGI (NCI/ADR-RES ovarian) | GI50 (HCC-2998 colon) | GI50 (RXF 393 renal)
C/C(CN1C(=O)c2ccccc2C1=O)=N\NS(C)(=O)=O | > 100 µM | > 100 µM | > 100 µM | > 100 µM | > 100 µM | > 100 µM | > 100 µM | > 100 µM |  |  |  |  |  |  |  |  |  |  |  | 
O=CN/C=C/c1ccccc1O | > 100 µM | > 100 µM | > 100 µM | > 100 µM | > 100 µM | > 100 µM | > 100 µM | > 100 µM |  |  |  |  |  |  |  |  |  |  |  | 
O=C(Nc1cc(Cl)cc(Cl)c1)c1ccc(NC2=C(Cl)C(=O)N(Cc3ccccc3)C2=O)cc1 | 5.37 µM | 33.9 µM | 24.2 µM | 6.01 µM | 13.7 µM | 25.1 µM |  |  | 5.74 µM | 22.4 µM | 1.99 µM | 12.7 µM | 9.37 µM | 2.29 µM | 3.5 µM | 11.5 µM | 11.3 µM | 26.7 µM |  | 
Cn1c(C2CC(C)(C)c3c2c2ccccc2n3C)cc2ccccc21 (stereo not drawn) | > 304 µM | > 304 µM |  |  | > 304 µM | > 304 µM | > 304 µM | > 304 µM |  |  |  |  |  |  |  |  |  |  |  | 
O=C1CSc2ccncc2N1 | > 100 µM | > 100 µM | > 100 µM | > 100 µM | > 100 µM | > 100 µM | > 100 µM | > 100 µM |  |  |  |  |  |  |  |  |  |  |  | 
Cn1c(-c2ccccc2)c/c(=N\NS(C)(=O)=O)c2cc(S(=O)(=O)O)ccc21 | > 100 µM | > 100 µM | > 100 µM | > 100 µM | > 100 µM | > 100 µM | > 100 µM | > 100 µM |  |  |  |  |  |  |  |  |  |  |  | 
COC(=O)c1c/c(=N\NC(=O)CC(=O)Nc2ccc(C)cc2)c2ccccc2o1 | > 100 µM | > 100 µM | > 100 µM | > 100 µM | > 100 µM | > 100 µM |  | > 100 µM |  |  |  |  |  |  |  |  |  |  |  | 
COC(=O)c1cc(O)ccc1NC(=O)c1ccc(O)cc1 | > 100 µM | > 100 µM | > 100 µM | > 100 µM | > 100 µM | > 100 µM | > 100 µM |  |  |  |  |  |  |  |  |  |  |  |  | 
O=C1CC23CC(=O)CC2(C1)c1ccccc1C3=O (stereo not drawn) | > 100 µM | > 100 µM | > 100 µM | > 100 µM | > 100 µM | > 100 µM | > 100 µM | > 100 µM |  |  |  |  |  |  |  |  |  |  |  | 
Cc1ccc(C2CC(c3cccc(Nc4ccncc4)c3)=NN2c2ccc(Cl)cc2)cc1 (stereo not drawn) | 3.06 µM |  | 3.39 µM | 2.63 µM | 3.14 µM | 3.76 µM | 3.14 µM | 2.97 µM | 1.41 µM | 2.78 µM | 1.69 µM |  | 1.73 µM | 1.35 µM | 1.74 µM | 1.87 µM | 1.87 µM | 3.88 µM | 1.69 µM | 1.59 µM
FC(F)(F)c1ccccc1C=NC12CC3CC(CC(C3)C1)C2 | > 100 µM | > 100 µM | > 100 µM | 12.1 µM | > 100 µM | > 100 µM | > 100 µM | > 100 µM |  |  |  |  |  |  |  |  |  |  |  | 
COC(=O)C1CCc2nnc(-c3cccnc3)n21 (stereo not drawn) | > 100 µM | > 100 µM | > 100 µM | > 100 µM | > 100 µM | > 100 µM | > 100 µM | > 100 µM |  |  |  |  |  |  |  |  |  |  |  | 
NC(CCCNCc1ccccc1O)C(=O)O (stereo not drawn) | > 100 µM | > 100 µM | > 100 µM | > 100 µM | > 100 µM | > 100 µM |  |  |  |  |  |  |  |  |  |  |  |  |  | 
Clc1ccc(CCn2cncn2)c(Cl)c1 | > 100 µM |  | > 100 µM | > 100 µM | > 100 µM | > 100 µM | > 100 µM |  |  |  |  |  |  |  |  |  |  |  |  | 
COc1ccc2oc(-c3ccc(Cl)cc3)c(N3CCN(C)CC3)c2c1 | 4.37 µM | 4.4 µM | 4.26 µM | 2.71 µM | 3.37 µM | 14.5 µM | 4.13 µM |  | 1.64 µM | 3.27 µM | 1.95 µM | 1.8 µM | 1.95 µM | 1.05 µM | 1.78 µM | 3.16 µM | 2.19 µM | 5.46 µM | 2.02 µM | 
COC(=O)/C(Cl)=C1/CC1COCc1ccccc1 (stereo not drawn) | 52.5 µM | 96.9 µM | 31.2 µM | 67.5 µM | 49.8 µM | 81.9 µM | > 10 µM | 37.8 µM |  |  |  |  |  |  |  |  |  |  |  | 
O=C(CN/C=C\C(=O)c1cc(Cl)ccc1Cl)c1ccccc1 | 85.7 µM |  | 59.6 µM | > 100 µM | 38.8 µM | 58.8 µM | 47.2 µM | 67.5 µM | 21.6 µM | 47.5 µM | 26 µM |  | 24 µM | 34.4 µM | 20.4 µM | 25.5 µM | 19.7 µM | 41.2 µM | 19.3 µM | 22.9 µM
COC(C(=O)[C@@H](O)[C@@H](C)O)[C@@H]1Cc2cc3cc(O[C@H]4C[C@@H](O[C@H]5C[C@@H](O)[C@H](O)C(C)O5)[C@H](O)C(C)O4)c(C)c(O)c3c(O)c2C(=O)[C@H]1O[C@H]1C[C@@H](O[C@H]2C[C@@H](O[C@H]3C[C@@H](O)[C@@H](O)C(C)O3)[C@@H](O)C(C)O2)[C@H](O)C(C)O1 (stereo partly drawn) | 8.76 µM | 1.11 µM | 7.61 µM | 4.75 µM | 2.82 µM |  | 7.74 µM | 1.01 µM |  |  | 0.232 µM | 0.172 µM | 0.633 µM | 0.605 µM | 0.147 µM |  | > 32.5 µM | > 32.5 µM | 0.569 µM | 0.202 µM
COC1(C)Cc2c(c(C)c(O)c3c2C(=O)C=C(Cl)C3=O)O1 (stereo not drawn) | > 72.8 µM | > 100 µM | 56.5 µM | > 100 µM | > 100 µM | > 100 µM | > 100 µM | 31.8 µM |  | 39.9 µM |  |  |  |  |  |  |  |  |  | 
CC1=NN(c2ccccc2)C(=O)C1C(=O)C(=O)Nc1ccc(C)cc1C (stereo not drawn) | > 100 µM | > 100 µM | > 100 µM | > 100 µM | > 100 µM | > 100 µM | > 100 µM | > 100 µM |  |  |  |  |  |  |  |  |  | > 100 µM |  | 
[O-][N+]1=C(c2ccccc2)COc2ccccc21 | > 100 µM | > 100 µM | > 100 µM | > 100 µM | > 100 µM | > 100 µM | > 100 µM | > 100 µM |  |  |  |  |  |  |  |  |  |  |  | 
